Legend:
Selumetinib = compound: Cn1cnc2c(F)c(Nc3ccc(Br)cc3Cl)c(C(=O)NOCCO)cc21 [Selumetinib]; conditions: max 10 µM
In short: (§1)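 Plates with 1536 wells received cancer cell lines in 7.5 μl of DMEM/F12 or RPMI containing 10% FBS. After 24 hours at 37°C and 5% CO2, cells were dosed for 72 hours with final DMSO typically 0.2%, and viability was read by CellTiter-Glo 2.0 luminescence scaled between blank-well and DMSO-well means. The single-agent IC50 was taken from a logistic fit of the dose responses made with a non-linear mixed effects model, that logistic curve having two parameters.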

Savolitinib = compound: C[C@@H](c1ccc2nccn2c1)n1nnc2ncc(-c3cnn(C)c3)nc21 [Savolitinib]; conditions: max 1 µM
In short: as §1

Crizotinib = compound: C[C@@H](Oc1cc(-c2cnn(C3CCNCC3)c2)cnc1N)c1c(Cl)ccc(F)c1Cl [Crizotinib]; conditions: max 10 µM
In short: as §1

Taselisib = compound: Cc1nc(-c2cn3c(n2)-c2ccc(-c4cnn(C(C)(C)C(N)=O)c4)cc2OCC3)n(C(C)C)n1 [Taselisib]; conditions: max 10 µM
In short: as §1

Dasatinib = compound: CC1=C(C(=CC=C1)Cl)NC(=O)C2=CN=C(S2)NC3=CC(=NC(=N3)C)N4CCN(CC4)CCO [Dasatinib]; conditions: max 2 µM
In short: as §1

SG3199 = compound: CC1=CN2[C@@H](C1)C=NC3=CC(=C(C=C3C2=O)OC)OCCCCCOC4=C(C=C5C(=C4)N=C[C@@H]6CC(=CN6C5=O)C)OC [SG3199]; conditions: max 0.001 µM
In short: as §1

SRA737 = compound: N#Cc1cnc(Nc2cc(NC[C@H]3CNCCO3)c(C(F)(F)F)cn2)cn1 [SRA737]; conditions: max 10 µM
In short: as §1

Olaparib = compound: O=C(c1cc(Cc2n[nH]c(=O)c3ccccc23)ccc1F)N1CCN(C(=O)C2CC2)CC1 [Olaparib]; conditions: max 10 µM
In short: as §1

5-Fluorouracil = compound: O=c1[nH]cc(F)c(=O)[nH]1 [5-Fluorouracil]; conditions: max 20 µM
In short: as §1

Prexasertib = compound: COc1cccc(OCCCN)c1-c1cc(Nc2cnc(C#N)cn2)n[nH]1 [Prexasertib]; conditions: max 1 µM
In short: as §1

AZD5363 = compound: C1CN(CCC1(C(=O)N[C@@H](CCO)C2=CC=C(C=C2)Cl)N)C3=NC=NC4=C3C=CN4 [AZD5363]; conditions: max 10 µM
In short: as §1

AZD2811 = compound: CCN(CCO)CCCOc1ccc2c(Nc3cc(CC(=O)Nc4cccc(F)c4)[nH]n3)ncnc2c1 [AZD2811]; conditions: max 1 µM
In short: as §1

Etoposide = compound: COc1cc([C@@H]2c3cc4c(cc3[C@@H](O[C@@H]3O[C@@H]5CO[C@@H](C)O[C@H]5[C@H](O)[C@H]3O)[C@H]3COC(=O)[C@H]23)OCO4)cc(OC)c1O [Etoposide]; conditions: max 10 µM
In short: as §1

Palbociclib = compound: CC(=O)c1c(C)c2cnc(Nc3ccc(N4CCNCC4)cn3)nc2n(C2CCCC2)c1=O [Palbociclib]; conditions: max 10 µM
In short: as §1

Trametinib = compound: CC(=O)Nc1cccc(-n2c(=O)n(C3CC3)c(=O)c3c(Nc4ccc(I)cc4F)n(C)c(=O)c(C)c32)c1 [Trametinib]; conditions: max 1 µM
In short: as §1

Doxorubicin = compound: COc1cccc2c1C(=O)c1c(O)c3c(c(O)c1C2=O)C[C@@](O)(C(=O)CO)C[C@@H]3O[C@H]1C[C@H](N)[C@H](O)[C@H](C)O1 [Doxorubicin]; conditions: max 1 µM
In short: as §1

MK-2206 = compound: NC1(c2ccc(-c3nc4ccn5c(=O)[nH]nc5c4cc3-c3ccccc3)cc2)CCC1 [MK-2206]; conditions: max 10 µM
In short: as §1

AZD6738 = compound: C[C@@H]1COCCN1C2=NC(=NC(=C2)C3(CC3)[S@](=N)(=O)C)C4=C5C=CNC5=NC=C4 [AZD6738]; conditions: max 10 µM
In short: as §1

Gefitinib = compound: COc1cc2ncnc(Nc3ccc(F)c(Cl)c3)c2cc1OCCCN1CCOCC1 [Gefitinib]; conditions: max 10 µM
In short: as §1

Alisertib = compound: COc1cc(Nc2ncc3c(n2)-c2ccc(Cl)cc2C(c2c(F)cccc2OC)=NC3)ccc1C(=O)O [Alisertib]; conditions: max 10 µM
In short: as §1

AZD8186 = compound: C[C@@H](Nc1cc(F)cc(F)c1)c1cc(C(=O)N(C)C)cc2c(=O)cc(N3CCOCC3)oc12 [AZD8186]; conditions: max 10 µM
In short: as §1

Lapatinib = compound: CS(=O)(=O)CCNCc1ccc(-c2ccc3ncnc(Nc4ccc(OCc5cccc(F)c5)c(Cl)c4)c3c2)o1 [Lapatinib]; conditions: max 10 µM
In short: as §1

AZD5153 = compound: COc1nnc2ccc(N3CCC(c4ccc(OCCN5CCN(C)C(=O)[C@H]5C)cc4)CC3)nn12 [AZD5153]; conditions: max 1 µM
In short: as §1

AZD1775 = compound: C=CCn1c(=O)c2cnc(Nc3ccc(N4CCN(C)CC4)cc3)nc2n1-c1cccc(C(C)(C)O)n1 [AZD1775]; conditions: max 3 µM
In short: as §1

Carboplatin = compound: C1CC(C1)(C(=O)[O-])C(=O)[O-].N.N.[Pt+2] [Carboplatin]; conditions: max 10 µM
In short: as §1

AZD0156 = compound: CN(C)CCCOc1ccc(-c2ccc3ncc4c(c3c2)n(C2CCOCC2)c(=O)n4C)cn1 [AZD0156]; conditions: max 3 µM
In short: as §1

AZD7648 = compound: Cc1cc2ncnn2cc1Nc1ncc2c(n1)n(C1CCOCC1)c(=O)n2C [AZD7648]; conditions: max 10 µM
In short: as §1

AZD5991 = compound: Cc1c2c(nn1C)CSCc1cc(n(C)n1)CSc1cc(c3ccccc3c1)OCCCc1c(C(=O)O)n(C)c3c-2c(Cl)ccc13 [AZD5991]; conditions: max 1 µM
In short: as §1

AZD4320 = compound: CN(CC[C@H](CSC1=CC=CC=C1)NC2=C(C=C(C=C2)S(=O)(=O)NC(=O)C3=CC=C(C=C3)N4CCC(CC4)[C@H](C5=CC=CC=C5C6=CC=C(C=C6)Cl)O)S(=O)(=O)C(F)(F)F)CCO [AZD4320]; conditions: max 1 µM
In short: as §1

Gemcitabine = compound: Nc1ccn([C@@H]2O[C@H](CO)[C@@H](O)C2(F)F)c(=O)n1 [Gemcitabine]; conditions: max 0.3 µM
In short: as §1

[1] = compound: O=C(Nc1ccc2[nH]nc(-c3ccncc3)c2c1)[C@@H]1CCN(CC(=O)N2CCN(c3ccc(-c4ncccn4)cc3)CC2)C1; conditions: max 5 µM
In short: as §1

Paclitaxel = compound: CC(=O)O[C@H]1C(=O)[C@@]2(C)[C@H]([C@H](OC(=O)c3ccccc3)[C@]3(O)C[C@H](OC(=O)[C@H](O)[C@@H](NC(=O)c4ccccc4)c4ccccc4)C(C)=C1C3(C)C)[C@]1(OC(C)=O)CO[C@@H]1C[C@@H]2O [Paclitaxel]; conditions: max 3 µM
In short: as §1

Venetoclax = compound: CC1(C)CCC(CN2CCN(c3ccc(C(=O)NS(=O)(=O)c4ccc(NCC5CCOCC5)c([N+](=O)[O-])c4)c(Oc4cnc5[nH]ccc5c4)c3)CC2)=C(c2ccc(Cl)cc2)C1 [Venetoclax]; conditions: max 1 µM
In short: as §1

SN-38 = compound: CCc1c2c(nc3ccc(O)cc13)-c1cc3c(c(=O)n1C2)COC(=O)[C@]3(O)CC [SN-38]; conditions: max 0.3 µM
In short: as §1

AZD1390 = compound: CC(C)n1c(=O)n(C)c2cnc3cc(F)c(-c4ccc(OCCCN5CCCCC5)nc4)cc3c21 [AZD1390]; conditions: max 0.3 µM
In short: as §1

Cell Line: Hs-578-T (Breast Carcinoma)
- IC50, cell viability 72 h (Selumetinib): > 10 µM
- IC50, cell viability 72 h (Savolitinib): > 1000 nM
- IC50, cell viability 72 h (Crizotinib): > 10000 nM
- IC50, cell viability 72 h (Taselisib): 2190 nM
- IC50, cell viability 72 h (Dasatinib): 66.8 nM
- IC50, cell viability 72 h (SG3199): > 1 nM
- IC50, cell viability 72 h (SRA737): > 10000 nM
- IC50, cell viability 72 h (Olaparib): > 10 µM
- IC50, cell viability 72 h (5-Fluorouracil): > 20 µM
- IC50, cell viability 72 h (Prexasertib): 12.3 nM
- IC50, cell viability 72 h (AZD5363): 2370 nM
- IC50, cell viability 72 h (AZD2811): 435 nM
- IC50, cell viability 72 h (Etoposide): > 10000 nM
- IC50, cell viability 72 h (Palbociclib): > 10 µM
- IC50, cell viability 72 h (Trametinib): > 1000 nM
- IC50, cell viability 72 h (Doxorubicin): 300 nM
- IC50, cell viability 72 h (MK-2206): 5.65 µM
- IC50, cell viability 72 h (AZD6738): 1810 nM
- IC50, cell viability 72 h (Gefitinib): > 10 µM
- IC50, cell viability 72 h (Alisertib): 3970 nM
- IC50, cell viability 72 h (AZD8186): 1710 nM
- IC50, cell viability 72 h (Lapatinib): > 10 µM
- IC50, cell viability 72 h (AZD5153): 156 nM
- IC50, cell viability 72 h (AZD1775): 394 nM
- IC50, cell viability 72 h (Carboplatin): > 10 µM
- IC50, cell viability 72 h (AZD0156): > 3000 nM
- IC50, cell viability 72 h (AZD7648): > 10 µM
- IC50, cell viability 72 h (AZD5991): > 1000 nM
- IC50, cell viability 72 h (AZD4320): > 1000 nM
- IC50, cell viability 72 h (Gemcitabine): > 300 nM
- IC50, cell viability 72 h [1]: > 5 µM
- IC50, cell viability 72 h (Paclitaxel): < 3 nM
- IC50, cell viability 72 h (Venetoclax): > 1000 nM
- IC50, cell viability 72 h (SN-38): > 300 nM
- IC50, cell viability 72 h (AZD1390): > 300 nM

Cell Line: KELLY (Neuroblastoma)
- IC50, cell viability 72 h (Selumetinib): > 10 µM
- IC50, cell viability 72 h (Savolitinib): > 1000 nM
- IC50, cell viability 72 h (Crizotinib): 1980 nM
- IC50, cell viability 72 h (Taselisib): > 10000 nM
- IC50, cell viability 72 h (Dasatinib): > 2000 nM
- IC50, cell viability 72 h (SG3199): > 1 nM
- IC50, cell viability 72 h (SRA737): 199 nM
- IC50, cell viability 72 h (Olaparib): > 10 µM
- IC50, cell viability 72 h (5-Fluorouracil): 12.6 µM
- IC50, cell viability 72 h (Prexasertib): 1.18 nM
- IC50, cell viability 72 h (AZD5363): > 10000 nM
- IC50, cell viability 72 h (AZD2811): 333 nM
- IC50, cell viability 72 h (Etoposide): 2530 nM
- IC50, cell viability 72 h (Palbociclib): > 10 µM
- IC50, cell viability 72 h (Trametinib): > 1000 nM
- IC50, cell viability 72 h (Doxorubicin): 142 nM
- IC50, cell viability 72 h (MK-2206): > 10 µM
- IC50, cell viability 72 h (AZD6738): 1530 nM
- IC50, cell viability 72 h (Gefitinib): > 10 µM
- IC50, cell viability 72 h (Alisertib): 237 nM
- IC50, cell viability 72 h (AZD8186): > 10000 nM
- IC50, cell viability 72 h (Lapatinib): 7.36 µM
- IC50, cell viability 72 h (AZD5153): > 1000 nM
- IC50, cell viability 72 h (AZD1775): 64.5 nM
- IC50, cell viability 72 h (Carboplatin): > 10 µM
- IC50, cell viability 72 h (AZD0156): > 3000 nM
- IC50, cell viability 72 h (AZD7648): > 10 µM
- IC50, cell viability 72 h (AZD5991): 378 nM
- IC50, cell viability 72 h (AZD4320): > 1000 nM
- IC50, cell viability 72 h (Gemcitabine): 3.87 nM
- IC50, cell viability 72 h [1]: > 5 µM
- IC50, cell viability 72 h (Paclitaxel): 10.8 nM
- IC50, cell viability 72 h (Venetoclax): 204 nM
- IC50, cell viability 72 h (SN-38): 7.25 nM
- IC50, cell viability 72 h (AZD1390): > 300 nM
